Measured values from PubChem BioAssay (NCI).
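Where inhibition never reached the appropriate level, the endpoint shown equals the highest concentration tested. Otherwise, values were interpolated linearly from a five-concentration, 48-hour dose response in 96-well plates. The concentration for full growth arrest is given as TGI.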

Legend:
Assay in all cases: NCI anticancer screen, dose series, 48 h
786-0 renal = test system: 786-0 renal
A498 renal = test system: A498 renal
A549 NSCLC = test system: A549 NSCLC
ACHN renal = test system: ACHN renal
BT-549 breast = test system: BT-549 breast
CAKI-1 renal = test system: CAKI-1 renal
CCRF-CEM leukemia = test system: CCRF-CEM leukemia
COLO 205 colon = test system: COLO 205 colon
DU-145 prostate = test system: DU-145 prostate
EKVX NSCLC = test system: EKVX NSCLC
HCC-2998 colon = test system: HCC-2998 colon
HCT-116 colon = test system: HCT-116 colon
HCT-15 colon = test system: HCT-15 colon
HL-60(TB) leukemia = test system: HL-60(TB) leukemia
HOP-62 NSCLC = test system: HOP-62 NSCLC
HOP-92 NSCLC = test system: HOP-92 NSCLC
HS 578T breast = test system: HS 578T breast
HT29 colon = test system: HT29 colon
IGROV1 ovarian = test system: IGROV1 ovarian
K-562 leukemia = test system: K-562 leukemia
KM12 colon = test system: KM12 colon
LOX IMVI melanoma = test system: LOX IMVI melanoma
M14 melanoma = test system: M14 melanoma
MALME-3M melanoma = test system: MALME-3M melanoma
MCF7 breast = test system: MCF7 breast
MDA-MB-435 = test system: MDA-MB-435
MDA-N = test system: MDA-N
MOLT-4 leukemia = test system: MOLT-4 leukemia
NCI-H226 lung = test system: NCI-H226 lung
NCI-H23 lung = test system: NCI-H23 lung
NCI-H460 lung = test system: NCI-H460 lung
NCI-H522 lung = test system: NCI-H522 lung
NCI/ADR-RES ovarian = test system: NCI/ADR-RES ovarian
OVCAR-3 ovarian = test system: OVCAR-3 ovarian
OVCAR-5 ovarian = test system: OVCAR-5 ovarian
OVCAR-8 ovarian = test system: OVCAR-8 ovarian
PC-3 prostate = test system: PC-3 prostate
RXF 393 renal = test system: RXF 393 renal
SF-268 CNS = test system: SF-268 CNS
SF-295 CNS = test system: SF-295 CNS
SF-539 CNS = test system: SF-539 CNS
SK-MEL-2 melanoma = test system: SK-MEL-2 melanoma
SK-MEL-28 melanoma = test system: SK-MEL-28 melanoma
SK-MEL-5 melanoma = test system: SK-MEL-5 melanoma
SK-OV-3 ovarian = test system: SK-OV-3 ovarian
SN12C renal = test system: SN12C renal
SNB-19 CNS = test system: SNB-19 CNS
SNB-75 CNS = test system: SNB-75 CNS
SW-620 colon = test system: SW-620 colon
T-47D breast = test system: T-47D breast
UACC-257 melanoma = test system: UACC-257 melanoma
UACC-62 melanoma = test system: UACC-62 melanoma
UO-31 renal = test system: UO-31 renal
MDA-MB-231 breast = test system: MDA-MB-231 breast
OVCAR-4 ovarian = test system: OVCAR-4 ovarian
TK-10 renal = test system: TK-10 renal
U251 CNS = test system: U251 CNS
RPMI-8226 leukemia = test system: RPMI-8226 leukemia

COc1cc(/C=N/NC(=O)c2c(Cl)c(Cl)c(Cl)c(Cl)c2-c2nc3ccccc3[nH]2)ccc1O
TGI (786-0 renal): > 100 µM
TGI (A498 renal): 61.4 µM
TGI (A549 NSCLC): > 100 µM
TGI (ACHN renal): 62.5 µM
TGI (BT-549 breast): 67.2 µM
TGI (CAKI-1 renal): 49.8 µM
TGI (CCRF-CEM leukemia): > 100 µM
TGI (COLO 205 colon): 73 µM
TGI (DU-145 prostate): 56.5 µM
TGI (EKVX NSCLC): 82.6 µM
TGI (HCC-2998 colon): 33.5 µM
TGI (HCT-116 colon): 43.6 µM
TGI (HCT-15 colon): 79.2 µM
TGI (HL-60(TB) leukemia): 53.2 µM
TGI (HOP-62 NSCLC): 75.8 µM
TGI (HOP-92 NSCLC): 33.4 µM
TGI (HS 578T breast): > 100 µM
TGI (HT29 colon): 62.9 µM
TGI (IGROV1 ovarian): > 100 µM
TGI (K-562 leukemia): > 100 µM
TGI (KM12 colon): 74.9 µM
TGI (LOX IMVI melanoma): 61.1 µM
TGI (M14 melanoma): 90.9 µM
TGI (MALME-3M melanoma): 52.9 µM
TGI (MCF7 breast): 44.7 µM
TGI (MDA-MB-435): 91.7 µM
TGI (MDA-N): 75.7 µM
TGI (MOLT-4 leukemia): > 100 µM
TGI (NCI-H226 lung): 87.6 µM
TGI (NCI-H23 lung): 55.3 µM
TGI (NCI-H460 lung): 57 µM
TGI (NCI-H522 lung): > 100 µM
TGI (NCI/ADR-RES ovarian): > 100 µM
TGI (OVCAR-3 ovarian): > 100 µM
TGI (OVCAR-5 ovarian): 86.7 µM
TGI (OVCAR-8 ovarian): > 100 µM
TGI (PC-3 prostate): > 100 µM
TGI (RXF 393 renal): 46.4 µM
TGI (SF-268 CNS): > 100 µM
TGI (SF-295 CNS): > 100 µM
TGI (SF-539 CNS): > 100 µM
TGI (SK-MEL-2 melanoma): 41.1 µM
TGI (SK-MEL-28 melanoma): > 100 µM
TGI (SK-MEL-5 melanoma): 34.2 µM
TGI (SK-OV-3 ovarian): > 100 µM
TGI (SN12C renal): > 100 µM
TGI (SNB-19 CNS): > 100 µM
TGI (SNB-75 CNS): 60.5 µM
TGI (SW-620 colon): > 100 µM
TGI (T-47D breast): 15.9 µM
TGI (UACC-257 melanoma): 87.6 µM
TGI (UACC-62 melanoma): 32.4 µM
TGI (UO-31 renal): > 100 µM

CC(C)=NNC1=NC(C)(C)P(=O)(NNc2ncccn2)S1 (stereo not given)
TGI (786-0 renal): > 100 µM
TGI (A498 renal): > 100 µM
TGI (A549 NSCLC): > 100 µM
TGI (ACHN renal): > 100 µM
TGI (BT-549 breast): > 100 µM
TGI (CAKI-1 renal): > 100 µM
TGI (DU-145 prostate): > 100 µM
TGI (EKVX NSCLC): > 100 µM
TGI (HCC-2998 colon): > 100 µM
TGI (HCT-116 colon): > 100 µM
TGI (HCT-15 colon): > 100 µM
TGI (HOP-62 NSCLC): > 100 µM
TGI (HOP-92 NSCLC): > 100 µM
TGI (HS 578T breast): > 100 µM
TGI (HT29 colon): > 100 µM
TGI (IGROV1 ovarian): > 100 µM
TGI (K-562 leukemia): > 100 µM
TGI (M14 melanoma): > 100 µM
TGI (MCF7 breast): > 100 µM
TGI (MDA-MB-231 breast): > 100 µM
TGI (MDA-MB-435): > 100 µM
TGI (MDA-N): > 100 µM
TGI (MOLT-4 leukemia): > 100 µM
TGI (NCI-H23 lung): > 100 µM
TGI (NCI-H460 lung): > 100 µM
TGI (NCI-H522 lung): > 100 µM
TGI (OVCAR-3 ovarian): > 100 µM
TGI (OVCAR-4 ovarian): > 100 µM
TGI (OVCAR-5 ovarian): > 100 µM
TGI (OVCAR-8 ovarian): > 100 µM
TGI (PC-3 prostate): > 100 µM
TGI (RXF 393 renal): > 100 µM
TGI (SF-268 CNS): > 100 µM
TGI (SF-295 CNS): > 100 µM
TGI (SF-539 CNS): > 100 µM
TGI (SK-MEL-2 melanoma): > 100 µM
TGI (SK-MEL-28 melanoma): > 100 µM
TGI (SK-MEL-5 melanoma): > 100 µM
TGI (SK-OV-3 ovarian): > 100 µM
TGI (SNB-19 CNS): > 100 µM
TGI (SW-620 colon): > 100 µM
TGI (T-47D breast): > 100 µM
TGI (TK-10 renal): > 100 µM
TGI (U251 CNS): > 100 µM
TGI (UACC-257 melanoma): > 100 µM
TGI (UACC-62 melanoma): > 100 µM
TGI (UO-31 renal): > 100 µM

COc1ccc(N=NC(=O)NC(CC(C)C)C(=O)NC(CC(C)C)C(=O)O)cc1 (stereo not given)
TGI (786-0 renal): > 100 µM
TGI (A498 renal): > 100 µM
TGI (A549 NSCLC): > 100 µM
TGI (ACHN renal): 80.2 µM
TGI (BT-549 breast): > 100 µM
TGI (CAKI-1 renal): > 100 µM
TGI (CCRF-CEM leukemia): > 100 µM
TGI (COLO 205 colon): 49.5 µM
TGI (DU-145 prostate): > 100 µM
TGI (EKVX NSCLC): > 100 µM
TGI (HCC-2998 colon): > 100 µM
TGI (HCT-116 colon): > 100 µM
TGI (HCT-15 colon): > 100 µM
TGI (HL-60(TB) leukemia): > 100 µM
TGI (HOP-62 NSCLC): > 100 µM
TGI (HOP-92 NSCLC): > 100 µM
TGI (HS 578T breast): > 100 µM
TGI (HT29 colon): > 100 µM
TGI (IGROV1 ovarian): > 100 µM
TGI (K-562 leukemia): 80.3 µM
TGI (KM12 colon): > 100 µM
TGI (LOX IMVI melanoma): > 100 µM
TGI (M14 melanoma): > 100 µM
TGI (MALME-3M melanoma): > 100 µM
TGI (MCF7 breast): > 100 µM
TGI (MDA-MB-435): > 100 µM
TGI (MDA-N): > 100 µM
TGI (MOLT-4 leukemia): > 100 µM
TGI (NCI-H226 lung): > 100 µM
TGI (NCI-H23 lung): > 100 µM
TGI (NCI-H460 lung): > 100 µM
TGI (NCI-H522 lung): > 100 µM
TGI (NCI/ADR-RES ovarian): > 100 µM
TGI (OVCAR-3 ovarian): > 100 µM
TGI (OVCAR-4 ovarian): > 100 µM
TGI (OVCAR-5 ovarian): > 100 µM
TGI (OVCAR-8 ovarian): > 100 µM
TGI (PC-3 prostate): > 100 µM
TGI (RPMI-8226 leukemia): > 100 µM
TGI (RXF 393 renal): > 100 µM
TGI (SF-268 CNS): > 100 µM
TGI (SF-295 CNS): > 100 µM
TGI (SF-539 CNS): 57.6 µM
TGI (SK-MEL-28 melanoma): > 100 µM
TGI (SK-MEL-5 melanoma): > 100 µM
TGI (SN12C renal): > 100 µM
TGI (SNB-19 CNS): > 100 µM
TGI (SNB-75 CNS): > 100 µM
TGI (SW-620 colon): > 100 µM
TGI (T-47D breast): > 100 µM
TGI (TK-10 renal): > 100 µM
TGI (U251 CNS): > 100 µM
TGI (UACC-257 melanoma): > 100 µM
TGI (UACC-62 melanoma): > 100 µM
TGI (UO-31 renal): > 100 µM
